This test relates to MV-4-11 cells. The test can be described thus: Gene expression microarray analysis (Affymetrix PrimeView) and GSEA. In kind it is cell-based, human. On the set-up: RFU PODN (11730768_x_at) / Fold change /veh PODN (11730768_x_at) / RFU LINC00158 (11744669_a_at) / Fold change /veh LINC00158 (11744669_a_at) / RFU DUSP10 (11751237_a_at) / Fold change /veh DUSP10 (11751237_a_at) / RFU ID3 (11757404_x_at) / Fold change /veh ID3 (11757404_x_at) / RFU PLEKHG5 (11737974_s_at) / Fold change /veh PLEKHG5 (11737974_s_at) / RFU LRRC4B (11730491_at) / Fold change /veh LRRC4B (11730491_at) / RFU GIMAP4 (11747438_a_at) / Fold change /veh GIMAP4 (11747438_a_at) / RFU KRT8 (11758183_x_at) / Fold change /veh KRT8 (11758183_x_at) / RFU CNN1 (11734310_a_at) / Fold change /veh CNN1 (11734310_a_at) / RFU VPS37D (11726825_at) / Fold change /veh VPS37D (11726825_at) / RFU C10orf10 (11716522_x_at) / Fold change /veh C10orf10 (11716522_x_at) / RFU KIR2DL2 /// KIR2DL4 /// KIR2DL5A /// KIR2DL5B /// KIR2DS1 /// KIR2DS2 /// KIR2DS3 /// KIR2DS4 /// KIR3DL3 /// KIR3DL3 /// KIR3DS1 (11738374_at) / Fold change /veh KIR2DL2 /// KIR2DL4 /// KIR2DL5A /// KIR2DL5B /// KIR2DS1 /// KIR2DS2 /// KIR2DS3 /// KIR2DS4 /// KIR3DL3 /// KIR3DL3 /// KIR3DS1 (11738374_at) / RFU C1QL1 (11718748_at) / Fold change /veh C1QL1 (11718748_at) / RFU TMPRSS4 (11747572_a_at) / Fold change /veh TMPRSS4 (11747572_a_at) / RFU HAMP (11756126_x_at) / Fold change /veh HAMP (11756126_x_at) / RFU RNFT2 (11725882_a_at) / Fold change /veh RNFT2 (11725882_a_at) / RFU NR4A2 (11747474_a_at) / Fold change /veh NR4A2 (11747474_a_at) / RFU ABCC12 (11746883_a_at) / Fold change /veh ABCC12 (11746883_a_at) / RFU TMEM136 (11760407_x_at) / Fold change /veh TMEM136 (11760407_x_at) / RFU CLDN22 /// WWC2 (11732394_at) / Fold change /veh CLDN22 /// WWC2 (11732394_at) / RFU HLA-DPB1 (11760878_x_at) / Fold change /veh HLA-DPB1 (11760878_x_at) / RFU SPINT1 (11716480_a_at) / Fold change /veh SPINT1 (11716480_a_at) / RFU GAP43 (11754022_s_at) / Fold change /veh GAP43 (11754022_s_at) / RFU A4GNT (11735810_at) / Fold change /veh A4GNT (11735810_at) / RFU PRB3 (11715151_x_at) / Fold change /veh PRB3 (11715151_x_at) / RFU TUBB4B (11761932_at) / Fold change /veh TUBB4B (11761932_at) / RFU CAPN14 (11732068_a_at) / Fold change /veh CAPN14 (11732068_a_at) / RFU TMCC2 (11721928_a_at) / Fold change /veh TMCC2 (11721928_a_at) / RFU IRGQ (11745062_a_at) / Fold change /veh IRGQ (11745062_a_at) / RFU FAM174B (11720279_a_at) / Fold change /veh FAM174B (11720279_a_at) / RFU TMPRSS4 (11748680_a_at) / Fold change /veh TMPRSS4 (11748680_a_at) / RFU FAM212B (11763350_a_at) / Fold change /veh FAM212B (11763350_a_at) / RFU PLEKHG5 (11743358_a_at) / Fold change /veh PLEKHG5 (11743358_a_at) / RFU ZSCAN30 (11745921_a_at) / Fold change /veh ZSCAN30 (11745921_a_at) / RFU CMKLR1 (11741424_a_at) / Fold change /veh CMKLR1 (11741424_a_at) / RFU LOC101060620 /// MAPK8IP1 (11723275_at) / Fold change /veh LOC101060620 /// MAPK8IP1 (11723275_at) / RFU SPTSSB (11747773_x_at) / Fold change /veh SPTSSB (11747773_x_at) / RFU PRSS12 (11739890_at) / Fold change /veh PRSS12 (11739890_at) / RFU BIN1 (11741810_x_at) / Fold change /veh BIN1 (11741810_x_at) / RFU WNT11 (11732464_a_at) / Fold change /veh WNT11 (11732464_a_at) / RFU C10orf10 (11716521_a_at) / Fold change /veh C10orf10 (11716521_a_at) / RFU C5orf56 (11738089_at) / Fold change /veh C5orf56 (11738089_at) / RFU CYB561 (11721691_x_at) / Fold change /veh CYB561 (11721691_x_at) / RFU ANKRD19P (11752326_a_at) / Fold change /veh ANKRD19P (11752326_a_at) / RFU OR2T12 /// OR2T33 /// OR2T8 (11738714_s_at) / Fold change /veh OR2T12 /// OR2T33 /// OR2T8 (11738714_s_at) / RFU VCAN (11748164_a_at) / Fold change /veh VCAN (11748164_a_at) / RFU JSRP1 (11732532_at) / Fold change /veh JSRP1 (11732532_at) / RFU KRTAP10-11 (11738290_x_at) / Fold change /veh KRTAP10-11 (11738290_x_at) / RFU MYO3A (11730013_a_at) / Fold change /veh MYO3A (11730013_a_at) / RFU EBF3 (11725865_a_at) / Fold change /veh EBF3 (11725865_a_at) / RFU CAMK2N1 (11719241_x_at) / Fold change /veh CAMK2N1 (11719241_x_at) / RFU C5orf56 (11738088_a_at) / Fold change /veh C5orf56 (11738088_a_at) / RFU OLFML3 (11715873_a_at) / Fold change /veh OLFML3 (11715873_a_at) / RFU LOC100653217 /// NTM (11731650_a_at) / Fold change /veh LOC100653217 /// NTM (11731650_a_at) / RFU MAPK11 (11762145_a_at) / Fold change /veh MAPK11 (11762145_a_at) / RFU FIZ1 (11724087_x_at) / Fold change /veh FIZ1 (11724087_x_at) / RFU OASL (11726364_x_at) / Fold change /veh OASL (11726364_x_at) / RFU SOX15 (11748057_x_at) / Fold change /veh SOX15 (11748057_x_at) / RFU CD79A (11719716_a_at) / Fold change /veh CD79A (11719716_a_at) / RFU HIST1H1D (11736915_at) / Fold change /veh HIST1H1D (11736915_at) / RFU CASKIN2 (11723855_a_at) / Fold change /veh CASKIN2 (11723855_a_at) / RFU LOC730098 (11760151_x_at) / Fold change /veh LOC730098 (11760151_x_at) / RFU OR4N2 (11742367_at) / Fold change /veh OR4N2 (11742367_at) / RFU PRRT2 (11749266_a_at) / Fold change /veh PRRT2 (11749266_a_at) / RFU SNX32 (11753110_a_at) / Fold change /veh SNX32 (11753110_a_at) / RFU CDHR5 (11726645_a_at) / Fold change /veh CDHR5 (11726645_a_at) / RFU RCAN1 (11760418_a_at) / Fold change /veh RCAN1 (11760418_a_at) / RFU FAM167A (11723789_a_at) / Fold change /veh FAM167A (11723789_a_at) / RFU FAM26E (11764081_at) / Fold change /veh FAM26E (11764081_at) / RFU ISYNA1 (11749810_s_at) / Fold change /veh ISYNA1 (11749810_s_at) / RFU ACY1 (11761880_at) / Fold change /veh ACY1 (11761880_at) / RFU 11764098_at / Fold change /veh 11764098_at / RFU SAMD14 (11745864_x_at) / Fold change /veh SAMD14 (11745864_x_at) / RFU NPB (11741838_a_at) / Fold change /veh NPB (11741838_a_at) / RFU TMPRSS6 (11731388_a_at) / Fold change /veh TMPRSS6 (11731388_a_at) / RFU KRTAP10-2 (11738614_at) / Fold change /veh KRTAP10-2 (11738614_at) / RFU ARHGAP8 /// PRR5-ARHGAP8 (11727945_x_at) / Fold change /veh ARHGAP8 /// PRR5-ARHGAP8 (11727945_x_at) / RFU KRTAP5-7 /// NADSYN1 (11734609_at) / Fold change /veh KRTAP5-7 /// NADSYN1 (11734609_at) / RFU RASL12 (11751679_a_at) / Fold change /veh RASL12 (11751679_a_at) / RFU CDKN2B (11736163_a_at) / Fold change /veh CDKN2B (11736163_a_at) / RFU PRF1 (11729649_at) / Fold change /veh PRF1 (11729649_at) / RFU, ZNF638 /// ZNF638-IT1 / Fold change vs veh, ZNF638 /// ZNF638-IT1 / RFU, PANK3 / Fold change vs veh, PANK3 / RFU, SH3YL1 / Fold change vs veh, SH3YL1 / RFU, ZEB2 / Fold change vs veh, ZEB2 / RFU, NRIP1 / Fold change vs veh, NRIP1 / RFU, PTTG1IP / Fold change vs veh, PTTG1IP / RFU, CAPN2 / Fold change vs veh, CAPN2 / RFU, MED14 / Fold change vs veh, MED14 / RFU, SNORA58 / Fold change vs veh, SNORA58 / RFU, C1orf63 / Fold change vs veh, C1orf63 / RFU, LRRFIP1 / Fold change vs veh, LRRFIP1 / RFU, NDUFAF7 / Fold change vs veh, NDUFAF7 / RFU, SLC12A2 / Fold change vs veh, SLC12A2 / RFU, IBTK / Fold change vs veh, IBTK / RFU, ESF1 / Fold change vs veh, ESF1 / Fold change vs veh, TMEM50B / RFU, TAOK1 / Fold change vs veh, TAOK1 / RFU, ACBD3 / Fold change vs veh, ACBD3 / RFU, TMA16 / Fold change vs veh, TMA16 / RFU, RWDD3 / Fold change vs veh, RWDD3 / RFU, BCAT1 / Fold change vs veh, BCAT1 / RFU, EDEM3 / Fold change vs veh, EDEM3 / RFU, TMEM33 / Fold change vs veh, TMEM33 / RFU, WDR75 / Fold change vs veh, WDR75 / RFU, AHCTF1 / Fold change vs veh, AHCTF1 / RFU, TFRC / Fold change vs veh, TFRC / RFU, ZDHHC17 / Fold change vs veh, ZDHHC17 / RFU, NOM1 / Fold change vs veh, NOM1 / RFU, ARL8B / Fold change vs veh, ARL8B / RFU, ZBTB11 / Fold change vs veh, ZBTB11 / RFU, TAMM41 / Fold change vs veh, TAMM41 / RFU, KIAA1704 /// LOC100996395 / Fold change vs veh, KIAA1704 /// LOC100996395 / RFU, ING1 / Fold change vs veh, ING1 / RFU, TRMT61B / Fold change vs veh, TRMT61B / RFU, FUBP3 / Fold change vs veh, FUBP3 / RFU, TP53 / Fold change vs veh, TP53 / RFU, TNKS2 / Fold change vs veh, TNKS2 / RFU, ZFP14 / Fold change vs veh, ZFP14 / RFU, ACTR2 / Fold change vs veh, ACTR2 / RFU, PPP3R1 / Fold change vs veh, PPP3R1 / RFU, PIK3R1 / Fold change vs veh, PIK3R1 / RFU, HNRNPA1 / Fold change vs veh, HNRNPA1 / RFU, RNF170 / Fold change vs veh, RNF170 / RFU, ZNF28 / Fold change vs veh, ZNF28 / RFU, RNGTT / Fold change vs veh, RNGTT / RFU, OGT / Fold change vs veh, OGT / RFU, BRD1 / Fold change vs veh, BRD1 / RFU, MARS / Fold change vs veh, MARS / RFU, ZNF655 / Fold change vs veh, ZNF655 / RFU, FAHD1 / Fold change vs veh, FAHD1 / RFU, BDP1 / Fold change vs veh, BDP1 / RFU, LRRCC1 / Fold change vs veh, LRRCC1 / RFU, ARID1A / Fold change vs veh, ARID1A / RFU, ZNF146 / Fold change vs veh, ZNF146 / RFU, ZNF330 / Fold change vs veh, ZNF330 / RFU, GPN3 / Fold change vs veh, GPN3 / RFU, C9orf123 / Fold change vs veh, C9orf123 / RFU, N4BP2L2 / Fold change vs veh, N4BP2L2 / RFU, ARFIP1 / Fold change vs veh, ARFIP1 / RFU, FAM179B / Fold change vs veh, FAM179B / RFU, BCL10 / Fold change vs veh, BCL10 / RFU, UHRF1BP1L / Fold change vs veh, UHRF1BP1L / RFU, BET1 / Fold change vs veh, BET1 / RFU, CNOT2 / Fold change vs veh, CNOT2 / RFU, ZNF268 / Fold change vs veh, ZNF268 / Fold change vs veh, ZNF507 / RFU, DGCR2 / Fold change vs veh, DGCR2 / RFU, WDSUB1 / Fold change vs veh, WDSUB1 / Fold change vs veh, HSP90B1 /// MIR3652 / RFU, ADSS / Fold change vs veh, ADSS / RFU, GK / Fold change vs veh, GK / RFU, ZNF148 / Fold change vs veh, ZNF148 / RFU, TAF9 / Fold change vs veh, TAF9 / RFU, SLC1A5 / Fold change vs veh, SLC1A5 / RFU, SLMO2 / Fold change vs veh, SLMO2 / RFU, ABCC4 / Fold change vs veh, ABCC4 / RFU, LOC101060439 /// RAP1B / Fold change vs veh, LOC101060439 /// RAP1B / RFU, RFX7 / Fold change vs veh, RFX7 / RFU, GTPBP10 / Fold change vs veh, GTPBP10 / RFU, CNEP1R1 / Fold change vs veh, CNEP1R1 / RFU, BIVM-ERCC5 /// ERCC5 / Fold change vs veh, BIVM-ERCC5 /// ERCC5 / RFU, ILF3 / Fold change vs veh, ILF3 / RFU 11762660_at / Fold change /veh 11762660_at / RFU VCAN (11757783_s_at) / Fold change /veh VCAN (11757783_s_at) / RFU DDX43 (11728927_at) / Fold change /veh DDX43 (11728927_at) / RFU KRT8 (11758188_x_at) / Fold change /veh KRT8 (11758188_x_at) / RFU NKD1 (11759106_at) / Fold change /veh NKD1 (11759106_at) / RFU SRD5A1 (11742802_a_at) / Fold change /veh SRD5A1 (11742802_a_at) / RFU TPSAB1 /// TPSB2 (11721975_s_at) / Fold change /veh TPSAB1 /// TPSB2 (11721975_s_at) / RFU GSTM3 (11746129_a_at) / Fold change /veh GSTM3 (11746129_a_at) / RFU IL23R (11737362_x_at) / Fold change /veh IL23R (11737362_x_at) / RFU TMEM51 (11727254_a_at) / Fold change /veh TMEM51 (11727254_a_at) / RFU PIWIL2 (11732686_x_at) / Fold change /veh PIWIL2 (11732686_x_at) / RFU ORM1 (11744905_x_at) / Fold change /veh ORM1 (11744905_x_at) / RFU CCDC152 (11743942_at) / Fold change /veh CCDC152 (11743942_at) / RFU ECM1 (11717891_a_at) / Fold change /veh ECM1 (11717891_a_at) / RFU IL23R (11748794_a_at) / Fold change /veh IL23R (11748794_a_at) / RFU TNFAIP8L3 (11732012_x_at) / Fold change /veh TNFAIP8L3 (11732012_x_at) / RFU MBOAT4 (11741988_at) / Fold change /veh MBOAT4 (11741988_at) / RFU 11764193_at / Fold change /veh 11764193_at / RFU TMEM53 (11763286_at) / Fold change /veh TMEM53 (11763286_at) / RFU MAGEB2 (11727129_at) / Fold change /veh MAGEB2 (11727129_at) / RFU TMEM200A (11744735_a_at) / Fold change /veh TMEM200A (11744735_a_at) / RFU CCDC152 (11751479_a_at) / Fold change /veh CCDC152 (11751479_a_at) / RFU FAM211A (11726209_a_at) / Fold change /veh FAM211A (11726209_a_at) / RFU RGS16 (11746705_a_at) / Fold change /veh RGS16 (11746705_a_at) / RFU VCAN (11755009_s_at) / Fold change /veh VCAN (11755009_s_at) / RFU RHOB (11743442_s_at) / Fold change /veh RHOB (11743442_s_at) / RFU RGS16 (11720943_a_at) / Fold change /veh RGS16 (11720943_a_at) / RFU RGS16 (11720944_at) / Fold change /veh RGS16 (11720944_at) / RFU, VPS4B / Fold change vs veh, VPS4B / RFU, CREB1 / Fold change vs veh, CREB1 / RFU, DNAJC13 / Fold change vs veh, DNAJC13 / RFU, GNAQ / Fold change vs veh, GNAQ / RFU, CDK5R1 / Fold change vs veh, CDK5R1 / RFU, ZRANB3 / Fold change vs veh, ZRANB3 / RFU, CUL4A / Fold change vs veh, CUL4A / RFU, CCNY / Fold change vs veh, CCNY / RFU, UFL1 / Fold change vs veh, UFL1 / RFU, COG3 / Fold change vs veh, COG3 / RFU, DIAPH2 / Fold change vs veh, DIAPH2 / RFU, SKA2 / Fold change vs veh, SKA2 / RFU, AFF3 / Fold change vs veh, AFF3 / RFU, LMF1 / Fold change vs veh, LMF1 / RFU, IPO11 / Fold change vs veh, IPO11 / RFU, DFFB / Fold change vs veh, DFFB / RFU, FOXP1 / Fold change vs veh, FOXP1 / RFU, CARD8 / Fold change vs veh, CARD8 / RFU, STRN3 / Fold change vs veh, STRN3 / RFU, ADK / Fold change vs veh, ADK / RFU, RASSF2 / Fold change vs veh, RASSF2 / RFU, WIPF1 / Fold change vs veh, WIPF1 / RFU, LARP1B / Fold change vs veh, LARP1B / RFU, RASA1 / Fold change vs veh, RASA1 / RFU, RB1 / Fold change vs veh, RB1 / RFU, PPFIA1 / Fold change vs veh, PPFIA1 / RFU, MAT2A / Fold change vs veh, MAT2A / RFU, CCT5 / Fold change vs veh, CCT5 / RFU, WDR92 / Fold change vs veh, WDR92 / RFU, CUX1 / Fold change vs veh, CUX1 / RFU, TTC7A / Fold change vs veh, TTC7A / RFU, TMEM135 / Fold change vs veh, TMEM135 / RFU, DEPTOR / Fold change vs veh, DEPTOR / RFU, CPM / Fold change vs veh, CPM / RFU, DNAJB6 / Fold change vs veh, DNAJB6 / RFU, CACNA2D3 / Fold change vs veh, CACNA2D3 / RFU, DTX4 / Fold change vs veh, DTX4 / RFU, TFCP2 / Fold change vs veh, TFCP2 / RFU, GMCL1 /// GMCL1P1 / Fold change vs veh, GMCL1 /// GMCL1P1 / RFU, AEBP2 / Fold change vs veh, AEBP2 / RFU, SNHG1 /// SNORD22 /// SNORD25 /// SNORD26 /// SNORD27 /// SNORD28 /// SNORD29 /// SNORD31 / Fold change vs veh, SNHG1 /// SNORD22 /// SNORD25 /// SNORD26 /// SNORD27 /// SNORD28 /// SNORD29 /// SNORD31 / Fold change (Aza/veh), C12orf56 (ProbeSet 11735607_a_at) / Fold change (ACY-1035/veh), C12orf56 (ProbeSet 11735607_a_at) / Fold change (Aza/veh), FGFR1OP (ProbeSet 11751329_s_at) / Fold change (ACY-1035/veh), FGFR1OP (ProbeSet 11751329_s_at) / Fold change (Aza/veh), VPS36 (ProbeSet 11739960_a_at) / Fold change (ACY-1035/veh), VPS36 (ProbeSet 11739960_a_at) / RFU SYPL1 (11715823_x_at) / Fold change /veh SYPL1 (11715823_x_at) / RFU IGFBP7 (11715501_s_at) / Fold change /veh IGFBP7 (11715501_s_at) / RFU REEP3 (11722064_at) / Fold change /veh REEP3 (11722064_at) / RFU IGLL1 (11728026_x_at) / Fold change /veh IGLL1 (11728026_x_at): dose or concentration left out as unconfirmed. Conditions: ProbeSet 11732433_s_at; LIST B.

Regarding `Nc1ccc(-c2cccs2)cc1NC(=O)c1ccc2c(c1)cc(C1CC1)n2CCN1CCOCC1` [ACY-1035], the “RFU, GK” value came out at 305.66 RFU.
